Data from article PMC9775322, “An Integrated Analysis of Mechanistic Insights into Biomolecular Interactions and Molecular Dynamics of Bio-Inspired Cu(II) and Zn(II) Complexes towards DNA/BSA/SARS-CoV-2 3CL^pro by Molecular Docking-Based Virtual Screening and FRET Detection” (Biomolecules, 2022).

Experiments:
Escherichia coli = test: Agar disc diffusion antibacterial test; details: for diameter of clear zone inhibition / Inhibition %: A, (-) Escherichia coli; for diameter of clear zone inhibition: 20 µL of 100 µM on 6 mm disc, Control (DMSO) = 6 mm; for Inhibition %: (T–C)/T × 100
Staphylococcus Aureus = test: Agar disc diffusion antibacterial test; details: for diameter of clear zone inhibition / Inhibition %: F, (+) Staphylococcus Aureus; for diameter of clear zone inhibition: 20 µL of 100 µM on 6 mm disc, Control (DMSO) = 6 mm; for Inhibition %: (T–C)/T × 100
BSA = biological target: T1, BSA (Bos taurus, UniProt P02769); test: BSA binding by fluorescence emission titration; parameters: species or system bovine; details: for KSV (Stern-Volmer binding constant), BSA binding, Method–I / Kass (association binding constant), BSA binding, Stern–Volmer Method–II / n (number of binding sites), BSA binding, Stern–Volmer Method–II: BSA emission 350 nm; for Kq (bimolecular quenching rate constant), BSA binding, Stern–Volmer Method–I: Kq=KSV/τ0, τ0 = 10^−8 S, BSA emission 350 nm (λex 278 nm); for P (ratio of fluorescence quantum efficiency), BSA binding: intercept of F/F0 vs 1/[BSA]; for ΔGb°, BSA binding, Stern–Volmer Method–II: −RT ln Kass, T = 298 K
T1 construct: purchased Sigma Aldrich
T1 sequence (P02769 25-607): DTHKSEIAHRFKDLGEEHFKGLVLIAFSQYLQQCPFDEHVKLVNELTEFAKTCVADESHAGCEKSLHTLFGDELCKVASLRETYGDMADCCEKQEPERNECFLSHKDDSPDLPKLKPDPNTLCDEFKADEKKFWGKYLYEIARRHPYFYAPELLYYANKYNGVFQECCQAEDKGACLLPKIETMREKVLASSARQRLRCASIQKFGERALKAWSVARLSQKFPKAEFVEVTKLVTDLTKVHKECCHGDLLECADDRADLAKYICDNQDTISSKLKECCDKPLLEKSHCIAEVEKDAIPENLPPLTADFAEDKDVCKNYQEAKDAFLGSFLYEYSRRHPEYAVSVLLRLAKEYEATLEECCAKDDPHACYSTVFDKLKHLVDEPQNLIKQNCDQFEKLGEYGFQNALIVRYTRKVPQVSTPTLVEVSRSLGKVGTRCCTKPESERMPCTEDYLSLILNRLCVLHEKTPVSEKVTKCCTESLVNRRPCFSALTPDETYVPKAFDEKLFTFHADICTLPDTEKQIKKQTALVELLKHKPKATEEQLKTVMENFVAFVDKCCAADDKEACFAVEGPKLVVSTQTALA
Description: The DNA/BSA binding properties were acquired from the emission spectral titration with the supporting of the JASCO FP-6300 spectrofluorometer between the 200 and 800 nm regions. It is additional evidence for the complexes’ manner of DNA binding. While DNA (200 µM) was present or absent, we vigilantly monitored the intensity variations between 610 nm and 510 nm during the initial emission and excitation of EB [27]. Correspondingly, the emission titrations for BSA interaction with different concentrations between 2.5 μM and 25 μM for all samples were conducted in a Tris-HCl buffer solution (pH: 7.4) between the regions of 300 nm and 400 nm. […]
experiments were measured for BSA interaction in the range of 300 –400 nm, using a fluorescence cuvette with a path length of 1 cm. all test compounds have no substantial fluorescence emission rate in any of the above ranges in Tris-HCl buffer solution (pH=7.2).
Therefore, BSA interaction tests are not impaired in the interaction with the complexes [ 28].
In the experiment, the emission of BSA solution (25 µM) in 50 mM Tris –HCl /1 mM NaCl […]
While raising the test compound ’s concentration (0-25 µM), the intensity of the BSA decreases due to static quenching in the generation of ground state BSA – complex adduct. The observations of the BSA molecule at the excitation wavelength (278 nm) and at the emission wavelength (350 nm) that both of […]
Fcorr = Fobs × e[(Aex× dex) + (Aem× dem)]/ 2 = Fobs × e(Aex + Aem)/ 2 (S12) Fcorr and F obs are represented as the IFE-corrected emission and observed (uncorrected) emission intensities, respectively. d ex and d em are denoted as the cuvette path lengths in the […]
excitation and emission directions, respectively. Also, the alteration in absorbance (OD) at the excitation and fluorescence wavelengths, respectively, is sometimes referred to as A ex and […]
F = 1+KSV [Q] = 1+ Kq τ0 (S13)
Where [Q] is represented as the sample concentration (quencher), the emission intensities F 0 and F are those in the […] of the quencher, respectively.
F ) = log Kass + nlog [Q] (S14)
KEB[EB] = Kapp[compound] (S15)
∆F = (F 0–F), Equation (16) was utilized to examine the Lineweaver –Burk binding constant (KLB) from the linear regression plot of 1/(F0–F) vs 1/[Q]. […]
γ =(F0–F)/F0, CF is denoted as the concentration of sample alone, the linear regression plot of (γ/CF) vs γ was employed to support equation (17), which was used to determine the values of KSA and n, respectively.
2.2.6. FRET calculation by Förster’s theory
Calculating FRET (Fluorescence Resonance Energy Transfer) is a crucial approach in determining the critical distance (r) between donor (BSA) and acceptor (test compound) molecules, in which the binding affinity between the BSA-complex systems could be evalued according to Förster’s theory. The overlap of the emission spectrum of the donor (BSA) and the absorption spectrum of the acceptor (compound) describes that the acceptor (compound) group may get excited as a result of the excited donor's (BSA) energy being lost to the ground

CT-DNA = test: DNA binding by UV–visible absorption titration; parameters: species or system calf; details: for ΔGb° values, range over all methods (WS, BH, SK): DNA binding; for ΔGb° values, range over all methods (WS, BH, SK) / Kb, BH–I (Benesi–Hildebrand method I) / Kb, BH–II (Benesi–Hildebrand method II) / Kb, SK–I (Sakthi–Krause method I) / Kb, SK–II (Sakthi–Krause method II) / Kb, WS–I (Wolfe-Shimmer method I) / Kb, WS–II (Wolfe-Shimmer method II): UV–Vis titration; for % H (hypochromism) / Δλ nm (red shift on binding to CT-DNA): compound 50 μM, DNA 0–50 μM, Tris-HCl buffer pH 7.4, 25 °C; for Kb, BH–I (Benesi–Hildebrand method I) / Kb, BH–II (Benesi–Hildebrand method II) / Kb, SK–I (Sakthi–Krause method I) / Kb, SK–II (Sakthi–Krause method II) / Kb, WS–I (Wolfe-Shimmer method I) / Kb, WS–II (Wolfe-Shimmer method II): intrinsic DNA binding constant; for ΔGb°, BH–I / ΔGb°, BH–II / ΔGb°, SK–I / ΔGb°, SK–II / ΔGb°, WS–I / ΔGb°, WS–II: −RT ln Kb, T = 298 K
Description: The DNA-binding experiment was performed by a UV–visible spectrophotometer by raising the DNA concentration from zero to 50 μM to the given concentration of all samples (50 μM) in Tris-HCl buffer with a pH of 7.4 at 25 °C [21, 22].
2.2.2. Evaluation of DNA-binding characteristics
By increasing the concentration of DNA (0 –50 μM), electronic absorption titrations were performed at the fixed concentration (50 μM) of all test compounds in aqueous media at room temperature. The Tris-HCl buffer (5mM Tris-HCl /50 mM NaCl, pH = 7.2) solution was guaranteed to be pure and contain sufficient amounts of DNA. Using the molar extinction coefficient (6600 M −1 cm−1) at 260 nm, it was also possible to measure the DNA concentration per nucleotide and polynucleotide, denoting that the DNA was sufficiently free of protein by the ratio of absorbance at 260 and 280 nm of roughly 1.8 –1.9 [21, 22]. When raising the concentration of DNA in compound solution, up to the point of completely binding, the decrease in absorbance intensity was carefully observed. […]
ɛa is represented as the apparent absorption coefficient value for the MLCT band at a specific concentration of deoxyribonucleic acid and evaluated from Abs/[complex]. ɛ f and ɛb are the absorption coefficients for the chemical substance alone and completely interacted with deoxyribonucleic acid, respectively. ∆Amax = (Amax–A0); ∆A=(Ax–A0), where A0, Ax and Amax are denoted as the optical density of chemical substances alone, the middle form, and the completely interacted form with deoxyribonucleic acid, respectively.

EB–DNA = test: Ethidium bromide displacement assay by fluorescence spectral titration; assay type: binding, calf; details: Kapp=KEB[EB]/[compound], KEB = 10^7 M^−1 at 50 µM EB; compound concentration at 50% reduction of EB fluorescence

[Cu+2].[O-]c1ccccc1N=Cc1ccc(N2CCOCC2)cc1.[O-]c1ccccc1N=Cc1ccc(N2CCOCC2)cc1.c1cnc2c(c1)ccc1cccnc12 [(1b), [Cu^II(L)2(phen)]]
diameter of clear zone inhibition (Escherichia coli): 9 mm | Inhibition % (Escherichia coli): 33% | diameter of clear zone inhibition (Staphylococcus Aureus): 11 mm | Inhibition % (Staphylococcus Aureus): 45% | KSV (Stern-Volmer binding constant), BSA binding, Method–I (BSA): 95640 M⁻¹ | Kass (association binding constant), BSA binding, Stern–Volmer Method–II (BSA): 71990 M⁻¹ | n (number of binding sites), BSA binding, Stern–Volmer Method–II (BSA): 1.021 | Kq (bimolecular quenching rate constant), BSA binding, Stern–Volmer Method–I (BSA): 9.564e+12 M⁻¹ s⁻¹ | P (ratio of fluorescence quantum efficiency), BSA binding (BSA): 0.322 | ΔGb°, BSA binding, Stern–Volmer Method–II (BSA): –27.71 kJM^−1 | ΔGb° values, range over all methods (WS, BH, SK) (CT-DNA): −24.58 to −25.12 kJmol^−1 | % H (hypochromism) (CT-DNA): 56.88% | Δλ nm (red shift on binding to CT-DNA) (CT-DNA): 7 nm | Kb, BH–I (Benesi–Hildebrand method I) (CT-DNA): 25359 M⁻¹ | Kb, BH–II (Benesi–Hildebrand method II) (CT-DNA): 25251 M⁻¹ | Kb, SK–I (Sakthi–Krause method I) (CT-DNA): 20314 M⁻¹ | Kb, SK–II (Sakthi–Krause method II) (CT-DNA): 21747 M⁻¹ | Kb, WS–I (Wolfe-Shimmer method I) (CT-DNA): 20610 M⁻¹ | Kb, WS–II (Wolfe-Shimmer method II) (CT-DNA): 21357 M⁻¹ | ΔGb°, BH–I (CT-DNA): −25.12 kJmol^−1 | ΔGb°, BH–II (CT-DNA): −25.11 kJmol^−1 | ΔGb°, SK–I (CT-DNA): −24.58 kJmol^−1 | ΔGb°, SK–II (CT-DNA): −24.74 kJmol^−1 | ΔGb°, WS–I (CT-DNA): −24.61 kJmol^−1 | ΔGb°, WS–II (CT-DNA): −24.70 kJmol^−1 | Kapp (apparent binding constant) (EB–DNA): 1e+07 M⁻¹

[O-]c1ccccc1N=Cc1ccc(N2CCOCC2)cc1.[O-]c1ccccc1N=Cc1ccc(N2CCOCC2)cc1.[Zn+2].c1cnc2c(c1)ccc1cccnc12 [(2b), [Zn^II(L)2(phen)]]
diameter of clear zone inhibition (Escherichia coli): 10 mm | Inhibition % (Escherichia coli): 40% | diameter of clear zone inhibition (Staphylococcus Aureus): 11 mm | Inhibition % (Staphylococcus Aureus): 45% | KSV (Stern-Volmer binding constant), BSA binding, Method–I (BSA): 79350 M⁻¹ | Kass (association binding constant), BSA binding, Stern–Volmer Method–II (BSA): 59840 M⁻¹ | n (number of binding sites), BSA binding, Stern–Volmer Method–II (BSA): 1.009 | Kq (bimolecular quenching rate constant), BSA binding, Stern–Volmer Method–I (BSA): 7.935e+12 M⁻¹ s⁻¹ | P (ratio of fluorescence quantum efficiency), BSA binding (BSA): 0.285 | ΔGb°, BSA binding, Stern–Volmer Method–II (BSA): –27.25 kJM^−1 | ΔGb° values, range over all methods (WS, BH, SK) (CT-DNA): −24.47 to −24.65 kJmol^−1 | % H (hypochromism) (CT-DNA): 55.75% | Δλ nm (red shift on binding to CT-DNA) (CT-DNA): 5 nm | Kb, BH–I (Benesi–Hildebrand method I) (CT-DNA): 20131 M⁻¹ | Kb, BH–II (Benesi–Hildebrand method II) (CT-DNA): 20035 M⁻¹ | Kb, SK–I (Sakthi–Krause method I) (CT-DNA): 19471 M⁻¹ | Kb, SK–II (Sakthi–Krause method II) (CT-DNA): 20897 M⁻¹ | Kb, WS–I (Wolfe-Shimmer method I) (CT-DNA): 19930 M⁻¹ | Kb, WS–II (Wolfe-Shimmer method II) (CT-DNA): 20811 M⁻¹ | ΔGb°, BH–I (CT-DNA): −24.55 kJmol^−1 | ΔGb°, BH–II (CT-DNA): −24.54 kJmol^−1 | ΔGb°, SK–I (CT-DNA): −24.47 kJmol^−1 | ΔGb°, SK–II (CT-DNA): −24.65 kJmol^−1 | ΔGb°, WS–I (CT-DNA): −24.53 kJmol^−1 | ΔGb°, WS–II (CT-DNA): −24.64 kJmol^−1 | Kapp (apparent binding constant) (EB–DNA): 4.804e+06 M⁻¹

Oc1ccccc1N=Cc1ccc(N2CCOCC2)cc1 [(HL), 2-(4-morpholinobenzylideneamino)phenol]
Inhibition % (Escherichia coli): 33% | zone of inhibition at 100 µM (Escherichia coli; Escherichia coli, read-out: diameter of clear zone inhibition): 9 mm | Inhibition % (Staphylococcus Aureus): 33% | zone of inhibition at 100 µM (Staphylococcus Aureus; Staphylococcus aureus, read-out: diameter of clear zone inhibition): 9 mm | KSV (Stern-Volmer binding constant), BSA binding, Method–I (BSA): 26390 M⁻¹ | n (number of binding sites), BSA binding, Stern–Volmer Method–II (BSA): 0.958 | Kq (bimolecular quenching rate constant), BSA binding, Stern–Volmer Method–I (BSA): 2.639e+12 M⁻¹ s⁻¹ | P (ratio of fluorescence quantum efficiency), BSA binding (BSA): 0.225 | ΔGb°, BSA binding, Stern–Volmer Method–II (BSA): –23.86 kJM^−1 | % H (hypochromism) (CT-DNA): 46.88% | Δλ nm (red shift on binding to CT-DNA) (CT-DNA): 4 nm | Kb, BH–I (Benesi–Hildebrand method I) (CT-DNA): 1.0545 (1.0545) × 10^4 M^−1 | Kb, BH–II (Benesi–Hildebrand method II) (CT-DNA): 1.0545 (1.0545) × 10^4 M^−1 | Kb, SK–I (Sakthi–Krause method I) (CT-DNA): 8775 M⁻¹ | Kb, SK–II (Sakthi–Krause method II) (CT-DNA): 15618 M⁻¹ | Kb, WS–I (Wolfe-Shimmer method I) (CT-DNA): 15169 M⁻¹ | Kb, WS–II (Wolfe-Shimmer method II) (CT-DNA): 15480 M⁻¹ | ΔGb°, BH–I (CT-DNA): −22.95 (−22.95) kJmol^−1 | ΔGb°, BH–II (CT-DNA): −22.95 (−22.95) kJmol^−1 | ΔGb°, SK–I (CT-DNA): −22.50 kJmol^−1 | ΔGb°, SK–II (CT-DNA): −23.92 kJmol^−1 | ΔGb°, WS–I (CT-DNA): −23.85 kJmol^−1 | ΔGb°, WS–II (CT-DNA): −23.90 kJmol^−1 | Kapp (apparent binding constant) (EB–DNA): 4.2e+06 M⁻¹
